We go through 2 compounds from patent US20040228831A1, “Polymeric conjugates for tissue activated drug delivery” (priority 2003, published 2004).

Data set [1] concerns murine melanoma B16-F10. Description: Anti-tumor efficacy in mice bearing s.c. murine melanoma B16-F10, daily i.v. x5. It counts as in vivo. The following applies: 2 mg/kg (free drug's MTD), daily i.v. for 5 days. The procedure:
(§1) Polymeric prodrug conjugate, conjugate, 6, a doxorubicin (Dox)-containing construct in which the drug moiety is attached to the PEG backbone via a cathepsin B-cleavable linker peptide was tested in mice bearing murine melanoma B16-F10 implanted s.c. Mice were treated by daily i.v. (tail vein) injection for 5 consecutive days, beginning on the day when tumors became palpable. The conjugate was studied at the maximum tolerated dose (MTD) of the free drug, 2 mg Dox/kg (equimolar comparison), and at the conjugate's MTD, 6 mg Dox/kg (equitoxic comparison). The conjugate, 6, or Dox administered at the free drug's MTD (2 mg/kg) had minimal anti-tumor effect (30% tumor reduction, 3.4 days delay in reaching 500 mg). But at the conjugate's MTD of 6 mg Dox/kg there was substantial activity (FIG. 1A). The conjugate reduced tumor by 81% and extended the time to reach 500 mg to 6.5 days. Therefore as a polymeric prodrug conjugate it was possible to increase the tolerated drug dose by a factor of 3, and this increase permitted the achievement of substantially greater anti-tumor efficacy.

Data set [2] can be described thus: Maximum tolerated dose of Dox and conjugate in mice, daily i.v. x5. The data set is classed as in vivo. The following applies: daily i.v. injection for 5 consecutive days. The method, then: as §1
Data set [3] can be described thus: Maximum tolerated dose of Pt construct and oxaliplatin. The data set is classed as in vivo, C57B1/6 mice. The note with it: mice. The source says:
Plasmin labile construct, 26, bearing an aspartic acid-platinum-diamino-cyclohexane (DACH) chelate was studied using C57B1/6 mice bearing s.c. B16-F10 murine melanoma (FIG. 1C). […] Thus, a substantially larger dose of Pt was safely delivered by the polymeric prodrug construct.

`COc1cccc2c1C(=O)c1c(O)c3c(c(O)c1C2=O)C[C@@](O)(C(=O)CO)C[C@@H]3O[C@H]1C[C@H](N)[C@H](O)[C@H](C)O1` [Dox, doxorubicin]: in data set [1], the “delay in reaching 500 mg” value stood at 3.4 days and the tumor reduction was 30%. The “maximum tolerated dose (MTD)” value in data set [2] was found to be 2 mg Dox/kg.

Regarding `O=C1[O][Pt]2([NH][C@@H]3CCCC[C@H]3[NH]2)[O]C1=O` [oxaliplatin], the “maximum tolerated dose (MTD)” value in data set [3] is listed as 10 mg Pt/kg.
